Here are results for 3 molecules from US11794009B2, “Devices, systems and methods for treating urological and gastrointestinal disorders by electrical stimulation of the foot” (priority 2014, dated 2023).

Molecules are shown by their SMILES.

Test [1] deals with bladder overactivity induced by 0.25% acetic acid (AA) irritation. Description: Cystometrogram (CMG) bladder capacity during 0.25% acetic acid (AA) infusion in anesthetized cats, duloxetine / WAY100635 with and without foot stimulation. The class given is in vivo, cat. The protocol:
Experiments were performed in a total of 8 adult anesthetized cats (5 female and 3 male cats between 3.1-4.4 kg). Each cat was anesthetized with isoflurane (2-3% in O2) during surgery and then changed to α-chloralose (65 mg/kg, supplemented as necessary) anesthesia during data collection. A pulse oximeter (9847V, Nonin Medical Inc., Plymouth, MN, USA) with the sensor attached to the tongue was used to monitor heart rate and blood oxygen saturation. Catheters were inserted in the right cephalic vein and right carotid artery for intravenous infusion of drugs and monitoring systemic blood pressure, respectively. Airway access was secured with a tracheostomy tube. Ureters were accessed through a midline abdominal incision and drained externally. The bladder was then cannulated with a double lumen catheter through a small cut at the proximal urethra to infuse saline or 0.25% AA and simultaneously measure bladder pressure. The proximal urethra was tied to prevent leakage. Fur was removed from the right hind foot and two self-adhesive pad electrodes (Grass FE10ND, Astro-Medical Inc., Mentor, OH, USA; diameter 1 cm) were attached to the skin at the bottom of the foot. One electrode was at the front of the foot and the other was at the heel (Chen G et al. Post-stimulation inhibitory effect on reflex bladder activity induced by activation of somatic afferent nerves in the foot. J Urol 187: 338-343, 2012; Tai C et al. Suppression of bladder overactivity by activation of somatic afferent nerves in the foot. BJU Int 107: 303-309, 2011).
Uniphasic rectangular pulses (5 Hz frequency, 0.2 ms pulsewidth) were delivered to the surface electrodes on the foot. Stimulation intensity threshold (T) was defined as the minimal intensity to induce a toe twitch. […] BJU Int 107: 303-309, 2011). Initially the bladder capacity was determined during cystometrograms (CMGs) by slowly infusing the bladder with saline. Multiple CMGs were performed to ensure reproducibility of the saline control capacity.
Bladder capacity was defined as the bladder volume threshold required to induce a micturition contraction of large amplitude (>30 cm H2O) and long duration (>20 seconds). Then, repeated CMGs were performed with infusion of 0.25% AA to irritate the bladder, activate nociceptive bladder afferent C-fibers, and induce bladder overactivity. When the bladder capacity stabilized, four CMGs were performed with AA infusion (Infusion rate=2 mL/min) prior to the administration of duloxetine: (1) control without stimulation, (2) during 2 T stimulation, (3) during 4 T stimulation, and (4) control without stimulation to determine any post-stimulation effect. The bladder was emptied at the end of each CMG and a 3-5 minute rest period was inserted between CMGs.
After the pre-drug CMGs were performed, increasing cumulative doses (0.003, 0.01, 0.03, 0.1, 0.3, 1, and 3 mg/kg, i.v.) of duloxetine (Selleck Chemicals, Houston, TX) were given to determine the drug effect on bladder capacity. Ten minutes after administering each dose of duloxetine, the four CMGs were again performed with AA infusion under different conditions (control, 2 T stimulation, 4 T stimulation, and post-stimulation control). The four repeated CMGs were completed within 40-60 minutes. In 4 cats 50-70 minutes after giving the maximal dose of duloxetine (3 mg/kg), WAY100635 (Sigma-Aldrich, St. Louis, MO), a 5HT1A antagonist, was administered (0.5 mg/kg, i.v.) to block 5HT1A inhibitory autoreceptors on serotonergic neurons in the raphe nucleus in an attempt to enhance the serotonergic inhibitory influence of duloxetine on bladder reflexes. Five minutes after administration of WAY100635, we performed control CMGs without stimulation to examine the combined effect of WAY100635 and duloxetine on bladder capacity.
For each CMG, bladder capacity was normalized to the initial saline control capacity in the same animal, which allowed for comparisons between animals.

Test [2] has the same test system. As to conditions: 0.5168 mg/kg dose alone (references 20, 31, 36); cited from earlier work.
The test system is the same in test [3]. Briefly: Cystometrogram (CMG) bladder capacity during 0.25% acetic acid (AA) infusion in anesthetized cats, tolterodine with and without foot stimulation. Type of test: in vivo, cat. The conditions noted are these: for bladder capacity: AA infusion. How it is done: Experiments were conducted in a total of 6 adult cats (4 female and 2 male cats between 2.8-3.8 kg) under achloralose anesthesia (65 mg/kg, supplemented as necessary) after induction with isoflurane (2-3% in O2). Heart rate and blood oxygen level were monitored with a pulse oximeter (9847 V, Nonin Medical Inc., Plymouth, MN, USA) that was attached to the tongue. Systemic blood pressure was monitored via a catheter in the right carotid artery. These physiological parameters were monitored to ensure that the animal's vital functions remained relatively stable during the entire experiment. Drugs or fluids were administered through a catheter in the right cephalic vein and airway access was secured with a tracheostomy tube. Ureters were accessed through a midline abdominal incision and drained externally. The bladder was cannulated through the urethra with a double lumen catheter to infuse (1-2 ml/min) saline or 0.25% acetic acid (AA) via one lumen and measure bladder pressure via another lumen. A ligature was tied around the proximal urethra to prevent leakage. Fur was removed from the foot and two self-adhesive pad electrode (Grass FE10ND, Astro-Medical Inc., Mentor, OH, USA; diameter 1 cm) were attached to the skin at the bottom of the left hind foot. One electrode was at the front of the foot and the other was at the heel.
Uniphasic rectangular pulses (5 Hz frequency, 0.2 ms pulsewidth) were delivered to the skin electrodes on the foot. Threshold (T) stimulation intensity (3-16 V), which was defined as the minimal intensity to induce an observable toe twitch, was determined by slowly increasing the stimulation intensity at the beginning of the experiment. […] The initial bladder capacity was determined during a cystometrogram (CMG) by slowly infusing the bladder with saline. Bladder capacity was defined as the bladder volume threshold to induce a bladder reflex contraction of large amplitude (>30 cm H2O) and long duration (>20 seconds).
Multiple CMGs were performed to determine reproducibility of the saline control capacity. Then, repeated CMGs were performed with AA infusion to irritate the bladder, activate nociceptive bladder C-fiber afferents, and induce bladder overactivity. Once the irritated bladder capacity was stabilized, four CMGs were performed prior to drug administration: 1. control CMG without stimulation; 2. CMG during 2 T stimulation; 3. CMG during 4 T stimulation; and 4. control CMG without stimulation to determine any post-stimulation effect. Increasing cumulative doses of tolterodine (tolterodine L-tartrate, Tocris Bioscience, Bristol, UK) were then administered (0.003, 0.01, 0.03, 0.1, and 0.3 mg/kg, i.v.). Ten minutes after administering each dose of tolterodine, the CMGs were performed again under the four different conditions (control, 2 T stimulation, 4 T stimulation, and post-stimulation control) to determine the drug effect on bladder capacity. The bladder was emptied after each CMG followed by a 3-5 min rest period to allow the distended detrusor to recover.
For the repeated CMG recordings, bladder capacity was normalized to the initial saline control capacity in the same animal to allow comparisons between animals. Capacity measurements under the same conditions were averaged and reported as mean±standard error of the mean (SEM). The mean amplitude of the bladder reflex contraction was also measured during each CMG and normalized to the AA control CMG to determine the effect of tolterodine on detrusor contractility. Statistical significance (p<0.05) was detected by ANOVA followed by Dunnett or Bonferroni post-tests.

Consider `CNCC[C@H](Oc1cccc2ccccc12)c1cccs1` [duloxetine], for which the “effect on AA-induced overactivity” value in test [1] (3 mg/kg i.v., absence of stimulation) was “completely removed AA-induced overactivity”. Besides, the “post-stimulation effect on bladder capacity” value in test [1] (after 2 T and 4 T stimulation in duloxetine treated animals) is given as “absence of a post-stimulation effect”. Further, the “effect of foot stimulation on capacity when combined with duloxetine” value in test [1] (after doses 0.003 mg/kg to 0.03 mg/kg i.v.) is recorded as “significantly (p<0.05) increased capacity”; in test [1] (after doses between 0.1 mg/kg and 3 mg/kg i.v.) it was “did not significantly increase capacity”. Besides, the bladder capacity in test [1] (after final 3 mg/kg dose of duloxetine, before WAY100635, no stimulation, N=4 cats) is on record as 117.3±17.6 % of saline control; in test [1] (duloxetine 3 mg/kg i.v. (cumulative), AA infusion, absence of stimulation, N=8 cats) it was 109±15.5 % of saline control; in test [1] (duloxetine 3 mg/kg i.v., AA infusion, during 2 T foot stimulation (5 Hz, 0.2 ms)), 129.3±23.2 % of saline control; in test [1] (duloxetine 3 mg/kg i.v., AA infusion, during 4 T foot stimulation (5 Hz, 0.2 ms)) it was 129.2±25.8 % of saline control. In addition, in test [1] (doses 0.1-3 mg/kg i.v., absence of stimulation), the “effect on bladder capacity during AA infusion” value was “dose-dependently and significantly (p<0.05) increased bladder capacity”.

On to `COc1ccccc1N1CCN(CCN(C(=O)C2CCCCC2)c2ccccn2)CC1` [WAY100635], for which the “effect of WAY100635 alone on bladder capacity” value in test [2] was “does not affect bladder capacity”. Besides, in test [1] (WAY100635 0.5168 mg/kg i.v. after final 3 mg/kg dose of duloxetine, no stimulation, N=4 cats, p=0.008), the bladder capacity is 162.2±22.5 % of saline control.

Turning to `Cc1ccc(O)c([C@H](CCN(C(C)C)C(C)C)c2ccccc2)c1` [tolterodine], in test [3] (0.1 mg/kg i.v., absence of stimulation), the “effect on control bladder capacity” value is recorded as “not effective in significantly increasing control bladder capacity”. In test [3] (0.003-0.3 mg/kg i.v., control, 2 T or 4 T foot stimulation CMGs), the “amplitude of bladder reflex contractions” value is recorded as “did not alter the amplitude of bladder reflex contractions”. For the same molecule, the “total inhibitory effect of tolterodine combined with foot stimulation” value in test [3] (2 T and 4 T foot stimulation, every dosage) is listed as “additive”. Moreover, the “post-stimulation effect on bladder capacity” value in test [3] (after 2 T and 4 T stimulation, every dose of tolterodine) was “no post-stimulation effect was observed”. For the same molecule, the “effect on bladder capacity during AA infusion CMGs” value in test [3] (cumulative doses 0.003-0.3 mg/kg i.v., absence of foot stimulation) is given as “increased bladder capacity dose dependently”. Besides, the bladder capacity in test [3] (tolterodine 0.1 mg/kg i.v., 4 T foot stimulation) is given as 97.0±11.2 % of saline control; in test [3] (tolterodine 0.3 mg/kg i.v. (cumulative), absence of foot stimulation, N=6 cats), 65.6±15.5 % of the saline control capacity; in test [3] (tolterodine 0.3 mg/kg i.v., 2 T foot stimulation), 86.2±6.2 % of the saline control; in test [3] (tolterodine 0.3 mg/kg i.v., 4 T foot stimulation) it was 107.9±10.6 % of the saline control. For the same molecule, the “threshold pressure for inducing a micturition reflex” value in test [3] (tolterodine 0.3 mg/kg i.v., 5.0±1.3 cm H2O before treatment) is given as 8.1±1.4 cm H2O.
